In ChEMBL document CHEMBL3286185, “Constituents of the roots of Clausena lansium and their potential anti-inflammatory activity” (J Nat Prod, 2014):

What was measured:
[1] = Antiinflammatory activity in human neutrophil assessed as inhibition of FMLP/CB-induced elastase release for 5 mins; assay type: functional, cell-based
[2] = Antiinflammatory activity in human neutrophil assessed as inhibition of FMLP/CB-induced superoxide anion generation pretreated for 5 mins by spectrophotometry; assay type: functional, cell-based

Row | IC50 [1] [µM] | IC50 [2] [µM] | SMILES
1 | 2 | > 10 | CC(C)=CCc1c(C=O)cc(O)c2[nH]c3ccccc3c12
2 | > 10 | 4.2 | CC(C)=CCOc1c2ccoc2cc2oc(=O)ccc12 [ISOIMPERATORIN]
3 | 1.5 | 1 | O=c1cc(N2CCOCC2)oc2c(-c3ccccc3)cccc12 [LY-294002]
4 | > 10 | 4.6 | COc1ccc2[nH]c3cc(OC)c(C=O)cc3c2c1 [GLYCOZOLIDAL]
5 | 6.9 | 3.5 | O=Cc1cc(O)c2[nH]c3ccccc3c2c1 [O-DEMETHYLMURRAYANINE]
6 | > 10 | 2.6 | CC(C)=CCc1c(O)ccc2ccc(=O)oc12 [OSTHENOL]
7 | > 10 | 4.3 | COC(=O)c1ccc2[nH]c3ccccc3c2c1
8 | 3.9 | 3.5 | COc1cc(C=O)cc2c1[nH]c1ccccc12 [MURRAYANINE]
9 | > 10 | 6.1 | CC1=C[C@H](C/C(C)=C\COc2c3occc3cc3ccc(=O)oc23)OC1=O
10 | > 10 | 1.9 | CC(C)=CCC/C(C)=C/COc1c2occc2cc2ccc(=O)oc12
11 | > 10 | 8.4 | C/C(=C\COc1c2occc2cc2ccc(=O)oc12)C[C@H]1C[C@H](C)C(=O)O1

Row | SMILES | IC50 [1] [µM] | IC50 [2] [µM]
12 | CC(C)=CCOc1c2occc2cc2ccc(=O)oc12 [PENTOSALEN] | > 10 | 3.5
